# Patent US8063042B2, “Heterocyclic compounds” (Hoffmann-La Roche Inc., priority 2007, dated 2011)
# Biological target: T1, human chemokine receptor 2 isoform B (Homo sapiens, UniProt P41597)
# T1 construct: host or cells: CHOK1-CCR2B-A5 (CHO-K1) cells
# T1 sequence (P41597 1-360 isoform P41597-2): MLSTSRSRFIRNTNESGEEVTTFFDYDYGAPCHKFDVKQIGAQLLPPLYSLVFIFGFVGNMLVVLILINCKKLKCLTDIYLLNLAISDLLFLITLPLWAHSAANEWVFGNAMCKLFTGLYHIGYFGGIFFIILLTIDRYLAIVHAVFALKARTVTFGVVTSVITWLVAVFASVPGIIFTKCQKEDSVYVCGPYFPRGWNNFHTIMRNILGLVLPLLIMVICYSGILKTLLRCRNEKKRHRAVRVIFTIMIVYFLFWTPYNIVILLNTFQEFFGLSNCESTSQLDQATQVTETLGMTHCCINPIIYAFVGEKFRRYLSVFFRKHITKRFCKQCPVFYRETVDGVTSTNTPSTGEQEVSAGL
# Test: Calcium mobilization assay
# Assay type: cell-based
# Conditions: Ca mobilisation assay for CCR2; CHOK1-CCR2B-A5 cells; antagonist activity against 20 nM MCP-1
# Protocol: Calcium Mobilization Assay
# CHOK1-CCR2B-A5 cells (from Euroscreen) stably overexpressing the human chemokine receptor 2 isoform B were cultured in Nutrient Hams F12 medium supplemented with 5% FBS, 100 U/ml penicillin, 100 μg/ml streptomycin, 400 μg/ml G418 and 5 μg/ml puromycin. For the assay cells were grown overnight in 384-well black clear flat bottom polystyrene plates (Costar) at 37° C. at 5% CO2. After washing with DMEM, 20 mM Hepes, 2.5 mM probenecid, 0.1% BSA (DMEM assay buffer) cells were loaded with 4 μM Fluo-4 in the same DMEM assay buffer for 2 hours at 30° C. Excess dye was removed and cells were washed with DMEM assay buffer. 384-well compound plates were prepared with DMEM assay buffer/0.5% DMSO with or without various concentrations of test compounds. Usually compounds were tested for agonist and antagonist activity.
# Test compounds were added to the assay plate and agonist activity was monitored as fluorescence for 80 seconds with a FLIPR (488 nm excitation; 510-570 nm emission; Molecular Devices). After 20-30 min. of incubation at 30° C., 20 nM MCP-1 (R&D; Roche) was added and fluorescence was monitored again for 80 seconds. Increases in intracellular calcium are reported as maximum fluorescence after agonist exposure minus basal fluorescence before exposure. Antagonist activity is indicated as inhibitor concentration required for 50% inhibition of specific calcium increases.
row,IC50 [nM],SMILES
1,284,"O=C(/C=C/c1ccc(Cl)c(Cl)c1)N1CCN(CCCN2CCC(O)CC2)C(=O)C1 [Example 11, 4-[(E)-3-(3,4-Dichloro-phenyl)-acryloyl]-1-[3-(4-hydroxy-piperidin-1-yl)-propyl]-piperazin-2-one]"
2,76.5,"CC1C(=O)N(CCCN2CCCC2)CCN1C(=O)/C=C/c1ccc(Cl)c(Cl)c1 (centres unmarked) [Example 15, 4-[(E)-3-(3,4-Dichloro-phenyl)-acryloyl]-3-methyl-1-(3-pyrrolidin-1-yl-propyl)-piperazin-2-one]"
3,202,"O=C(/C=C/c1ccc(Cl)c(Cl)c1)N1CCN(CCCN2CCCCC2)S(=O)(=O)C1 [Example 34, (E)-3-(3,4-Dichloro-phenyl)-1-[1,1-dioxo-2-(3-piperidin-1-yl-propyl)-[1,2,5]thiadiazinan-5-yl]-propenone]"

# The remaining lines, values behind:
row,SMILES,IC50 [nM]
1,"O=C(/C=C/c1ccc(Cl)c(Cl)c1)N1CCN(CCCN2CCC(CO)C2)C(=O)C1 (centres unmarked) [Example 14, 4-[(E)-3-(3,4-Dichloro-phenyl)-acryloyl]-1-[3-(3-hydroxymethyl-pyrrolidin-1-yl)-propyl]-piperazin-2-one]",307
2,"CC1C(=O)N(CCCN2CCC3(CC3)[C@H](O)C2)CCN1C(=O)/C=C/c1ccc(Cl)c(F)c1 (stereo partly drawn) [Example 39, 4-[(E)-3-(4-Chloro-3-fluoro-phenyl)-acryloyl]-1-[3-((S)-4-hydroxy-6-aza-spiro[2,5]oct-6-yl)-propyl]-3-methyl-piperazin-2-one]",13.7
